In series [1] the test system is scopolamine-treated NMRI mice. The series can be described thus: Morris water maze spatial reference memory task, reversal of scopolamine-induced cognitive deficits. The class given is in vivo. Conditions: for Learning / Thigmotaxis / S-T memory: mg/kg i.p.; for S-T memory: probe 1.5 h. On the procedure:
(§1) Female, NMRI mice aged 3-4 months were from Harlan, UK.
Mice were group housed (7-9 per cage) and maintained with light from 7 am-7 pm and experiments carried out in the light phase. […] They were separated into 6 groups to receive drug administrations as follows:
(§2) The injection volume for drugs was 0.2 ml per 30 g animal weight and they were injected intraperitoneally. The doses were as indicated above.
The water maze consisted of a water-filled pool (1.5 m diameter; 20±2° C.) in which a platform submerged 1 cm below water surface was the only means of escape. Mice were released from 4 cardinal sites (South, West, North and East) facing the wall of the pool in random fashion and thus had to acquire spatial knowledge of the exact platform location by spatial mapping procedures using distal cues.
Each animal was given 6 trials/day and was allowed to swim for a maximum time of 60 seconds and stay 30 seconds on the platform. […] An inter-trial interval of 10-20 minutes was given. The animals were trained for 4 consecutive days and received probe trials (free swim for 60 seconds without platform in the pool) approximately 1.5 and 24 hours post-training to test short and long-term memory, respectively. The behaviour of animals was recorded via an overhead camera and data transmitted to the PC for online storage and analysis (EthoVision basic version 3.0.8. Noldus Information Technology, Netherlands).
Probe trial data were analysed by one-way ANOVA and the appropriate post-hoc tests (Bonferroni's multiple comparison test or Newman Keuls) were carried out to determine the source of a significant main effect or interaction. Analyses were performed two-tailed and the null hypothesis was […] at probability levels of 5% (p<0.05). Only terms for reliable differences are mentioned in the text for simplicity.

For the next series, the system named is mice. The class given is in vivo. As to conditions: for highest effective and safe dose: i.p., mice.
For series [2] the following is noted: in vivo, ip.
Series [3] has as its system NMRI mice aged 2-3, 6 and 13 months. In words: Water maze learning and memory in young and aged NMRI mice. Conditions: 2-3 month mice; 1.5 hours; MTC 1 mg/kg i.p.
The test system of a further series is saline treated NMRI mice. The series can be described thus: Morris water maze spatial reference memory task, drug given after saline (otherwise unimpaired animals, side-effect profiling). Conditions: saline then Rivast (0.125), mg/kg i.p. Type of series: in vivo. How it is done: as §1
Mice were group housed (7-9 per cage) and maintained with light from 7 am-7 pm and experiments carried out in the light phase. There were 82 mice in total, of which 12 were excluded from the study for circling behaviour during the water maze test. They were separated into 6 groups to receive drug administrations as follows:
as §2
Behavioural testing was undertaken using the Morris water maze spatial navigational task (Morris, 1984). […]
Each animal was given 6 trials/day and was allowed to swim for a maximum time of 60 seconds and stay 30 seconds on the platform. […] The behaviour of animals was recorded via an overhead camera and data transmitted to the PC for online storage and analysis (EthoVision basic version 3.0.8. Noldus Information Technology, Netherlands). […]
Behavioural data of acquisition learning were analysed by conventional statistics (Graph Pad Prism version 4.01) using factorial repeated measures analysis of variance (ANOVA) with treatment as between-subject and day/trial as within-subject factor followed by planned comparisons between selected groups. […]

Series [4] in a line: Brain levels of MTC after administration. Conditions: post administration.
Where [5] appears, read: scopolamine 0.5 mg/kg then rivastigmine 0.5 mg/kg, probe trials.
The mark [6] stands for this setting: scopolamine (0.5) then Rivast (0.1).
[7] abbreviates: scopolamine (0.5) then Rivast (0.125).
Where [8] appears, read: scopolamine (0.5) then Rivast (0.125), listed as Rivast.
[9] abbreviates: scopolamine (0.5) then Rivast (0.25).
Setting [10] is: scopolamine (0.5) then Rivast (0.25), listed as Rivast.
The mark [11] stands for this setting: scopolamine (0.5) then Rivast (0.5).
Where [12] appears, read: scopolamine (0.5) then Rivast (0.5), listed as Rivast.

Entries after “also recorded” stand apart in the source; their conditions may differ. Where a name gives a salt, the structure may show the parent alone.

As to `CN(C)c1ccc2nc3ccc(N(C)C)cc3[s+]c2c1` [MTC, methyl-thioninium chloride], the “saturation of dose-response relationship for learning and memory formation” value in series [1] (linear dose-response) was “about 4 mg/kg”. Besides, the “highest effective and safe dose” value with mice is listed as 4 mg/kg. The “time of peak brain levels” value in series [2] lay in the range of 30 to 60 min. In addition, the “time spent in the target quadrant” value in series [3] is “no effect”.

As for `CCN(C)C(=O)Oc1cccc([C@H](C)N(C)C)c1` [rivastigmine, rivastigmine tartrate], the “dose required to fully restore spatial learning” value in series [1] (administered acutely, scopolamine-treated NMRI mice) was > 0.125 mg/kg. Further, in series [1] (scopolamine 0.5 mg/kg then rivastigmine 0.1 mg/kg), the “overall learning between day 1 and 4 (overall reduction in path length)” value is “substantial overall improvement”. Further, in series [1] (scopolamine 0.5 mg/kg then rivastigmine 0.5 mg/kg), the “thigmotaxis during memory phase” value is on record as “not significantly different from either scopolamine or saline”. For the same molecule, the “logarithmic transform of pathlength (advanced analysis)” value in series [1] (scopolamine 0.5 mg/kg then rivastigmine 0.5 mg/kg i.p., by day 4) was “reverse the deficit”. For the same molecule, the “proportion of time spent in target quadrant (probe trials)” value in series [1] (scopolamine 0.5 mg/kg then rivastigmine 0.5 mg/kg, pooled day 4 and day 5) is reported as “did not reverse”. The “latency (composite parameter, temporal accuracy)” value in series [1] (setting [5]) was “no effect at all”. Besides, the “localisation (composite parameter, spatial accuracy)” value in series [1] (setting [5]) is “not able to reverse the deficit”. In addition, the Learning entry in series [1] (setting [6]) is “ineffective”; in series [1] (scopolamine (0.5) then Rivast (0.1), listed as Rivast) it was “↓”; in series [1] (setting [8]), “↑”; in series [1] (scopolamine (0.5) then Rivast (0.125), listed as Rivastigmine) it was “fully reversed”; in series [1] (setting [9]), “only partial”; in series [1] (setting [10]), “↑↓”. Besides, the Learning result is “↑” in series [1] (setting [12]); “completely reversed; also recorded: fully reversed” in series [1] (scopolamine (0.5) then Rivast (0.5), listed as Rivastigmine); “did not alter spatial learning” in the series on saline treated NMRI mice. Moreover, the Thigmotaxis entry in series [1] (setting [6]) is reported as “↓”; in series [1] (setting [7]), “↑”; in series [1] (setting [9]) it was “↓”; in series [1] (setting [11]) it was “reversed”; in series [1] (setting [12]), “↑”. For the same molecule, the S-T memory entry in series [1] (setting [6]) is “↓”; in series [1] (setting [7]), “spatial bias was established”; in series [1] (setting [8]), “↑”; in series [1] (setting [9]) it was “memory deficit”; in series [1] (setting [10]), “↓”; in series [1] (setting [11]), “memory deficit”. Further, the S-T memory result in series [1] (setting [12]) is given as “↓”; in the series with saline treated NMRI mice (probe 1.5 h), “↑↓”. For the same molecule, the “adverse effects (motor coordination problems, ataxia, brief episodes of convulsions)” value with mice (doses of 0.5 and 0.25 mg/kg, in the absence of scopolamine treatment) was “severe adverse effects”. Further, the “highest effective and safe dose” value with mice was 0.125 mg/kg.

In the case of methyl-thioninium chloride [MTC], in series [4], the “time at which brain levels are maximal” value was 1 to 4 h.

The values above are taken from US9211294B2, “Phenothiazine compounds for treating mild cognitive impairment” (WisTa Laboratories Ltd., priority 2007, dated 2015).
